Results taken from patent US7220822B2, “CD28 mimetics for blocking T cell mediated immune reactions” (The Ohio State University, priority 2000, dated 2007).
Read-outs that look alike come from different tables or passages of the source. Square brackets hold non-standard residues; d marks the D form. Peptide text beside a SMILES is read from it.

Legend:
CD80-Ig = biological target: T1, CD80-Ig (Homo sapiens, UniProt P33681); experiment: Competitive kinetic analysis (SPR): CD28 peptides versus CD28-Ig for binding indirectly immobilized CD80-Ig; details: for kd: competition with CD28-Ig 3.2 μM
T1 construct: extracellular domain of CD80 fused with the constant region of mouse IgG1 heavy chain
Protocol: Competitive kinetic analysis was performed as described previously using purified anti-mouse IgG1 Fc (31437zz) (Pierce City, Ill., USA) to indirectly immobilize CD80-Ig (39). […] The binding kinetics of CD28-Ig was assessed by injecting a range of CD28-Ig concentration (187 nM to 12 μM) over immobilized CD80-Ig (324 RU) for 5 min at 10 μl/min. CD80-Ig was regenerated using a 3 min injection of 5 mM NaOH. For competitive kinetic analysis, 100 μl of a 3.2 μM CD28-Ig solution was mixed with 100 μl of EL CD28 or RI CD28 peptides (6.18 μM to 503 μM in HBS-EP) and injected over the surface of CD80-Ig as secondary analyte for 5 min with a flow rate of 10 μl/min. The CD80-Ig surface was regenerated between injections by washing for 3 min with 5 mM NaOH. The mixtures were also injected on an empty flow cell with no protein immobilized, as a control.
In competitive kinetic experiments, the observed response R is the sum of the contributions of R1 and R2 from the two analytes. The binding data was analyzed using the equation R(t)=R1 (CD28-Ig)+R2 (CD28-P) (3) where • R1=Rmaxka1C1/kf−ks{k1(kf−ks)/kf*ks+k1−kf/kf*e^−kf^(t−t0)−k1ks/ks*e^−ks(t−t0)} • R2=RmaxMW1ka2C2/MW2*kf−ks[{k2(kf−ks)}/kf*ks}+(k2−kf/kf)*e^−kf^(t−t0)−(k2−ks/ks)*e^−ks(t−t0) • kf=0.5{ktq+k2+π(ka1−k2)^2+4kf1kCD28PC1C2} • ks=0.5{kt1+k2−π(kt1−k2)^2+4k1k2C1C2} • kt CD28-Ig=ka1C+kd1 • kt2=ka2C2+kd2
When competitive data were analyzed, ka, kd and Rmax values obtained for the interaction between CD80-Ig and CD28-Ig were used as non floating parameters and the rate constants for CD28 peptides were calculated from the injection phase data using the expanded equation 3.
FIGS. 4a and 4b are representative sensograms obtained from the competitive experiments using the CD28-Ig and ELCD28 and RICD28 APR respectively. The top curve is the interaction of CD28-Ig (3.2 μM) alone with the CD80-Ig. The response level gradually goes down as the concentration of the specified CD28 peptide increases. […] However, the dissociation constant varied with varying concentration of EL CD28 peptide mimetic(Table 3).

[1] = system: lymph node cells of MBP-primed mice; experiment: IL-2 ELISPOT of draining lymph node cells from peptide-treated MBP-immunized mice; type: in vivo, mouse; details: mice treated on day 0 of immunization, ELISPOT on restimulation
Protocol: Ninety-six well unifilter plates (Polyfiltronics, Rockland, Md.) were coated overnight at 4° C. with rat anti-mouse IL-2 (Clone JES6-1A12) (Pharmingen, Calif.) at 4 μg/ml. The plates were then washed 4× with sterile PBS and blocked with 1% BSA in DMEM for 2 h at room temperature. Subsequently, isolated single cell suspensions of CD4+ LNC (5×10^6 cells/ml) and splenocytes (10×10^6 cells/ml) were added with the antigens and CD28 peptides under the conditions as specified for the proliferation assays. After 24 h of culture in the incubator, the cells were removed by washing 3× with PBS and 4× with PBS containing Tween (1:2000) (PBST). Then biotinylated anti mouse-IL-2 (Clone JES6-5H4) (Pharmingen, Calif.) 2 μg/ml was added and incubated at 4° C. overnight. After washing 3× with PBST and 3× with PBS, goat anti-biotin antibody conjugated to alkaline phosphatase (Vector Laboratories Inc, Burlingame, Calif.) diluted to 1:1000 in PBST containing 1% BSA was added and incubated for 2 h at room temperature. The spots were visualized by adding BCIP/NBT phosphatase substrate (Kirkeguard & Perry Laboratories, Gaithesburg, Md.). Image analysis of ELISA spot assays was performed on a Series 1 Immunospot Image Analyzer (Autoimmun Diagnostika (US) Inc.) customized for analyzing ELISA spots to meet objective criteria for size, chromatic density, shape and color.
MBP reactive T cells that induce EAE are known to display a Th1 phenotype secreting the proinflammatory cytokines IL-2, […] and TNF-β (36. Kay, B. K., M. P. Williamson, and M. Sudol. 2000. Faseb J 14, no. 2:231). ELISPOT assay was used to assess in vitro cytokine production by draining lymph node cells and splenocytes upon restimulation from in vivo MBP-primed T cells. Mice were treated as described in Example 3, on day 0 of immunization.

[2] = read-out: ka, competition with CD28-Ig 3.2 μM, peptide C 0.125 × 10^5 nM
[3] = read-out: ka, competition with CD28-Ig 3.2 μM, peptide C 0.25 × 10^5 nM
[4] = read-out: ka, competition with CD28-Ig 3.2 μM, peptide C 0.5 × 10^5 nM
[5] = read-out: ka, competition with CD28-Ig 3.2 μM, peptide C 1 × 10^5 nM
[6] = read-out: ka, competition with CD28-Ig 3.2 μM, peptide C 2 × 10^5 nM
[7] = read-out: ka, competition with CD28-Ig 3.2 μM, peptide C 3 × 10^5 nM

T1 sequence (P33681 35-242 limits assumed, other chains not shown): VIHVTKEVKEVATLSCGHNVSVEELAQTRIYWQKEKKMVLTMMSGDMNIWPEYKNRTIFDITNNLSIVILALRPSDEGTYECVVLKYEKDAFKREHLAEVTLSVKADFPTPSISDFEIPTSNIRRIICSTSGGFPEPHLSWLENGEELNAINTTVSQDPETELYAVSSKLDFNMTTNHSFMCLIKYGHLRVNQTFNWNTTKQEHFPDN

Structure (SMILES)	kd (CD80-Ig; peptide C 0.125 × 10^5 nM)	kd (CD80-Ig; peptide C 0.25 × 10^5 nM)	kd (CD80-Ig; peptide C 0.5 × 10^5 nM)	kd (CD80-Ig; peptide C 1 × 10^5 nM)	kd (CD80-Ig; peptide C 2 × 10^5 nM)	kd (CD80-Ig; peptide C 3 × 10^5 nM)	kon (CD80-Ig; [2])	kon (CD80-Ig; [3])	kon (CD80-Ig; [4])	kon (CD80-Ig; [5])	kon (CD80-Ig; [6])	kon (CD80-Ig; [7])	frequency of IL-2 secreting lymph node cells [1]
CC[C@H](C)[C@H](NC(=O)[C@@H](NC(=O)CNC(=O)[C@H](CC(N)=O)NC(=O)[C@H](CO)NC(=O)[C@H](CCCNC(=N)N)NC(=O)[C@H](CCC(=O)O)NC(=O)[C@H](CC(N)=O)NC(=O)[C@H](CC(=O)O)NC(=O)[C@H](CC(C)C)NC(=O)[C@H](Cc1ccc(O)cc1)NC(=O)[C@@H]1CCCN1C(=O)[C@@H]1CCCN1C(=O)[C@@H]1CCCN1C(=O)[C@H](Cc1ccc(O)cc1)NC(=O)[C@H](CCSC)NC(=O)[C@H](Cc1ccccc1)NC(=O)[C@H](CCC(=O)O)NC(=O)[C@@H](NC(=O)[C@H](CCCCN)NC(C)=O)[C@@H](C)CC)[C@@H](C)O)C(N)=O [EL CD28] (Ac-KIEFMYPPPYLDNERSNGTI-NH2)	0.101 s⁻¹	0.0195 s⁻¹	0.316 s⁻¹	0.0803 s⁻¹	0.0862 s⁻¹	6.89 s⁻¹	73400 M⁻¹ s⁻¹	3360 M⁻¹ s⁻¹	63200 M⁻¹ s⁻¹	31600 M⁻¹ s⁻¹	55100 M⁻¹ s⁻¹	2.36e+06 M⁻¹ s⁻¹	2776+/−53.5
CC[C@@H](C)[C@@H](NC(C)=O)C(=O)N[C@@H](C(=O)NCC(=O)N[C@H](CC(N)=O)C(=O)N[C@H](CO)C(=O)N[C@H](CCCNC(=N)N)C(=O)N[C@H](CCC(=O)O)C(=O)N[C@H](CC(N)=O)C(=O)N[C@H](CC(=O)O)C(=O)N[C@H](CC(C)C)C(=O)N[C@H](Cc1ccc(O)cc1)C(=O)N1CCC[C@@H]1C(=O)N1CCC[C@@H]1C(=O)N1CCC[C@@H]1C(=O)N[C@H](Cc1ccc(O)cc1)C(=O)N[C@H](CCSC)C(=O)N[C@H](Cc1ccccc1)C(=O)N[C@H](CCC(=O)O)C(=O)N[C@@H](C(=O)N[C@H](CCCCN)C(N)=O)[C@H](C)CC)[C@H](C)O [RI CD28] (Ac-[dI][dT]G[dN][dS][dR][dE][dN][dD][dL][dY][dP][dP][dP][dY][dM][dF][dE][dI][dK]-NH2)	0.177 s⁻¹	0.0738 s⁻¹	0.275 s⁻¹	0.142 s⁻¹	0.0245 s⁻¹	0.0206 s⁻¹	105000 M⁻¹ s⁻¹	54400 M⁻¹ s⁻¹	92400 M⁻¹ s⁻¹	94700 M⁻¹ s⁻¹	23500 M⁻¹ s⁻¹	10700 M⁻¹ s⁻¹	1753+/−37.7
